Molecular target: T1, GMDS (GDP-mannose 4,6-dehydratase) (Homo sapiens, UniProt O60547)
T1 construct: recombinant human GMDS with a His-tag (Addgene plasmid # 39152)
T1 sequence (O60547 2-372): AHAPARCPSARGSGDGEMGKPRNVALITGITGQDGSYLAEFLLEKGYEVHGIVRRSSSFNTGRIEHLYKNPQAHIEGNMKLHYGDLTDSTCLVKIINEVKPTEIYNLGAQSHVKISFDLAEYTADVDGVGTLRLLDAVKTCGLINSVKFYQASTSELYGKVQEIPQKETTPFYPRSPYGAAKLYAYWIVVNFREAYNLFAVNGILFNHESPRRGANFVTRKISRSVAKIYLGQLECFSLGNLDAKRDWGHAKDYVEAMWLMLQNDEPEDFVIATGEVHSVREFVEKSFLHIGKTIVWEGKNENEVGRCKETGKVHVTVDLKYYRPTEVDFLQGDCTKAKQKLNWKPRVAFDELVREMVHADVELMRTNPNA
Experiment: LC-MS and 1H NMR assay of GDP-mannose conversion by recombinant GMDS ([…] enzyme, […] GDP-mannose)
Format: biochemical

Nc1nc2c(ncn2[C@@H]2O[C@H](COP(=O)(O)OP(=O)(O)O[C@H]3O[C@H](C(F)F)[C@@H](O)[C@H](O)[C@@H]3O)[C@@H](O)[C@H]2O)c(=O)[nH]1 [compound 25, GDP-D-Rha6F2]
IC50: 231 µM
